Assay results published in ChEMBL document CHEMBL2216754, “Discovery of Imidazoquinolines with Toll-Like Receptor 7/8 Independent Cytokine Induction” (ACS Med Chem Lett, 2012).

Tests used:
[1] = Immunomodulatory activity in C57BL/6 mouse BMDC assessed as TNFalpha production at 30 uM after 3 days by FACS flow cytometric analysis (reference value: 91.3 +/- 34.5 pg/mL); format: functional
[2] = Immunomodulatory activity in C57BL/6 mouse BMDC assessed as IL-12p40 production at 30 uM after 3 days by FACS flow cytometric analysis (reference value: 260.6 +/- 11.9 pg/mL); format: functional
[3] = Immunomodulatory activity in C57BL/6 mouse BMDC assessed as IL-10 production at 30 uM after 3 days by FACS flow cytometric analysis (reference value: 16.2 +/- 4.7 pg/mL); format: functional
Toll-like receptor 8 = biological target: T1, Toll-like receptor 8 (Homo sapiens, UniProt Q9NR97); test: Agonist activity at human TLR8 transfected in HEK cells assessed as NFkappaB induction after 24 hrs by specific secreted alkaline phosphatase gene assay; format: functional, cell-based, HEK293
T1 sequence (Q9NR97 whole entry): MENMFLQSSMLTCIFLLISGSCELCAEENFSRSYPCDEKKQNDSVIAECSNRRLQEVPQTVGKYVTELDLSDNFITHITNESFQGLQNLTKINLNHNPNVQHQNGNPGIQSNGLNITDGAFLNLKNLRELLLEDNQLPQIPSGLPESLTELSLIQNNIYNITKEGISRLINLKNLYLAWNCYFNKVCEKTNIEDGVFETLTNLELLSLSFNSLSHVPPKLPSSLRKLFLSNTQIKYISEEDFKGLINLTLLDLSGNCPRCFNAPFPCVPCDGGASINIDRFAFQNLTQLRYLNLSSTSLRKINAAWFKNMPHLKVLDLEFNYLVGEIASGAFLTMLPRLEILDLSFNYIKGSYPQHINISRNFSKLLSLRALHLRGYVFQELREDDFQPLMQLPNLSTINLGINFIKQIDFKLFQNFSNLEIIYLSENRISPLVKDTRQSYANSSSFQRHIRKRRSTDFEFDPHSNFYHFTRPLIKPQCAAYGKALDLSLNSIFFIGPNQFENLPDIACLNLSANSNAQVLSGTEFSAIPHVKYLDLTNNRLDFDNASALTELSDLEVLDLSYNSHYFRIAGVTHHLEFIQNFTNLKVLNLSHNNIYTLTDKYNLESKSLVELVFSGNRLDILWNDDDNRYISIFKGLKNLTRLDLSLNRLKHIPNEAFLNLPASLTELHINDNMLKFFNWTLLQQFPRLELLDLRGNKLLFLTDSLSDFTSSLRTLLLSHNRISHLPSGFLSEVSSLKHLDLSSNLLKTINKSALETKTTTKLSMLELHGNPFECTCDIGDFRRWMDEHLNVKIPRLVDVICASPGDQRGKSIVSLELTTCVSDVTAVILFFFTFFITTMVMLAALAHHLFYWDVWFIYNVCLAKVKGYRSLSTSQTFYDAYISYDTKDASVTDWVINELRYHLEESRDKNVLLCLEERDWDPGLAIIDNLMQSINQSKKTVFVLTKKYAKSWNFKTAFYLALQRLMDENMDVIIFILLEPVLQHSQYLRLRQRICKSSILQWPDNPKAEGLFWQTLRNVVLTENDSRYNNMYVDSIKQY

[4] = Immunomodulatory activity in C57BL/6 mouse BMDC assessed as IL-1beta production at 30 uM after 3 days by FACS flow cytometric analysis (reference value: 26.2 +/- 3.7 pg/mL); format: functional
Toll-like receptor 7 = biological target: T2, Toll-like receptor 7 (Homo sapiens, UniProt Q9NYK1); test: Agonist activity at human TLR7 transfected in HEK cells assessed as NFkappaB induction after 24 hrs by specific secreted alkaline phosphatase gene assay; format: functional, cell-based, HEK293
T2 sequence (Q9NYK1 whole entry): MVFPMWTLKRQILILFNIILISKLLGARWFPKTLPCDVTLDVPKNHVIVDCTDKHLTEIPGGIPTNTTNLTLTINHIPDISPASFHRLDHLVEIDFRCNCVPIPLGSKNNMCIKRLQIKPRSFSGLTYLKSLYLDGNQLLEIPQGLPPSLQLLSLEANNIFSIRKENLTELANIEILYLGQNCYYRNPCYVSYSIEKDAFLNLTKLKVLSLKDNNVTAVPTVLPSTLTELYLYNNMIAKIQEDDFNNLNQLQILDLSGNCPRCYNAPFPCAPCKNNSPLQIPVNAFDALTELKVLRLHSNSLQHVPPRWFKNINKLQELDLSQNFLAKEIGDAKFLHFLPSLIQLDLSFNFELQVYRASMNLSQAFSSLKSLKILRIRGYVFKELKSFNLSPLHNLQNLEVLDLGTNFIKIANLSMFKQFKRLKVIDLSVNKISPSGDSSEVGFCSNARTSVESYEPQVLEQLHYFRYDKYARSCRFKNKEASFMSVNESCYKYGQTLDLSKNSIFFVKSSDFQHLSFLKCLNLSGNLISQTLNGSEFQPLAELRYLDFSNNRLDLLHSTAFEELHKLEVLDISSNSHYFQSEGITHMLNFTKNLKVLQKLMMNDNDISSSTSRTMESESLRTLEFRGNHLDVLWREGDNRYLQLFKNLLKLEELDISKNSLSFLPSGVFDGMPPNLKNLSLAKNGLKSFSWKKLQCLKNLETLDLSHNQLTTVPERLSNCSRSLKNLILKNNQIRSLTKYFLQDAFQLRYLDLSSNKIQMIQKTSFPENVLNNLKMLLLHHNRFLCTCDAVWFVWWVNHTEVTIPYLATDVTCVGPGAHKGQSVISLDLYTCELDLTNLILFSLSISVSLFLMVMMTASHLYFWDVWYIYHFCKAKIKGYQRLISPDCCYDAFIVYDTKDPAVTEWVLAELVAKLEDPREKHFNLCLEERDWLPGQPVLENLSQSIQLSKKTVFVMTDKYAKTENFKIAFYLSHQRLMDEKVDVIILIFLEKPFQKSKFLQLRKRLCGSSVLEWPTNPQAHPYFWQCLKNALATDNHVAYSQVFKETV

[5] = Immunomodulatory activity in C57BL/6 mouse BMDC assessed as TNFalpha production at 30 uM after 3 days by FACS flow cytometric analysis relative to imiquimod; format: functional
[6] = Immunomodulatory activity in C57BL/6 mouse BMDC assessed as IL-12p40 production at 30 uM after 3 days by FACS flow cytometric analysis relative to imiquimod; format: functional

SMILES	Activity [1]	Activity [2]	Activity [3]	EC50 (Toll-like receptor 8)	Activity [4]	EC50 (Toll-like receptor 7)	fold change (FC) [5]	fold change (FC) [6]
CC(C)(O)Cn1cnc2c(N)nc3ccccc3c21	2041 pg/mL	839 pg/mL	60 pg/mL	> 270 µM	61 pg/mL	95 µM	–	–
CC(C)Cn1cnc2c(N)nc3ccccc3c21 [IMIQUIMOD]	593 pg/mL	889 pg/mL	33 pg/mL	> 270 µM	35 pg/mL	12.1 µM	–	–
CCOCc1nc2c(N)nc3ccccc3c2n1CC(C)(C)O [RESIQUIMOD]	2134 pg/mL	1491 pg/mL	72 pg/mL	–	38 pg/mL	–	–	–
CCCCc1nc2c(N)nc3ccccc3c2n1CC(C)(C)O	1743 pg/mL	864 pg/mL	181 pg/mL	–	73 pg/mL	–	–	–
CCCCc1nc2c(N)nc3cc(C(=O)OC)ccc3c2n1CC(C)(C)O	1353 pg/mL	1286 pg/mL	110 pg/mL	41.3 µM	893 pg/mL	1.2 µM	–	–
COC(=O)c1ccc2c(c1)nc(N)c1ncn(CC(C)(C)O)c12	1451 pg/mL	1773 pg/mL	94 pg/mL	> 270 µM	1144 pg/mL	> 270 µM	>2	>2
